Source: US6355799B1, “Substituted benzene compounds, process for their preparation, and herbicidal and defoliant compositions containing them” (ISK Americas Incorporated, priority 1997, dated 2002)

Experiments:
Assay type in all cases: in vivo
[1] = system: redroot pigweed (Amaranthus retroflexus, AMARE); assay: Pre-emerge test, greenhouse herbicide activity screening; conditions: rated 14 days after application, 0 = no damage, 100 = complete death
Outline: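 Herbicidal damage is scored 0 (none) to 100 (complete plant death) two weeks after a simulated field spray. Rates span 15–1000 g ai/ha, delivered in acetone at 187 l/ha. For post-emergence treatments, plants have 2–3 leaves and the spray carries 0.25% v/v non-ionic surfactant.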

[2] = system: barnyardgrass (Echinochloa crus-galli, ECHCG); assay: as above; conditions: rated 14 days after application, 0 = no damage, 100 = complete death
Outline: (§1)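 Compounds in acetone were track-sprayed at 15-1000 g ai/ha (187 l/ha) on sandy loam pots: pre-emerge one day after seeding, post-emerge at 2-3 leaf stage with 0.25% v/v non-ionic surfactant. Phytotoxicity was rated 14 days later on a 0 (no damage) to 100 (complete death) scale.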

[3] = system: common ragweed (Ambrosia artemisizfolia L., AMBEL); assay: as above; conditions: rated 14 days after application, 0 = no damage, 100 = complete death
Outline: as §1

[4] = system: green foxtail (Setaria viridis, SETVI); assay: as above; conditions: rated 14 days after application, 0 = no damage, 100 = complete death
Outline: as §1

[5] = system: ivyleaf morningglory (Ipomoea hederacea, IPOHE); assay: as above; conditions: rated 14 days after application, 0 = no damage, 100 = complete death
Outline: as §1

[6] = system: johnsongrass (Sorghum halepense, SORHA); assay: as above; conditions: rated 14 days after application, 0 = no damage, 100 = complete death
Outline: as §1

[7] = system: lambsquarters (Chenopodium album, CHEAL); assay: as above; conditions: rated 14 days after application, 0 = no damage, 100 = complete death
Outline: as §1

[8] = system: large crabgrass (Digitaria sanguinalis, DIGSA); assay: as above; conditions: rated 14 days after application, 0 = no damage, 100 = complete death
Outline: as §1

[9] = system: sicklepod (Cassia obtusifolia, CASOB); assay: as above; conditions: rated 14 days after application, 0 = no damage, 100 = complete death
Outline: as §1

[10] = system: velvetleaf (Abutilon theophrasti, ABUTH); assay: as above; conditions: rated 14 days after application, 0 = no damage, 100 = complete death
Outline: as §1

[11] = system: field corn (Zea mays L., var. Dekalb 535, CORN); assay: Pre-emerge test, crop safety; conditions: rated 14 days after application, 0 = no damage, 100 = complete death
Outline: (§2)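 Sandy loam pots; pre-emerge: sown 1 d pre-spray, surface-watered after, then bottom-watered. Post-emerge: sown 8–21 d before, 2–3 leaf stage, + 0.25% v/v NIS, bottom-watered. Acetone, 187 l/ha track spray, 15–1000 g ai/ha. 0–100 injury score, day 14.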

[12] = system: upland rice (Oryza sp., var. Tebonnet, RICE); assay: Pre-emerge test, crop safety; conditions: rated 14 days after application, 0 = no damage, 100 = complete death
Outline: as §2

[13] = system: barnyardgrass (Echinochloa crus-galli, ECHCG); assay: Post-emerge test, greenhouse herbicide activity screening; conditions: post-emerge, 14 days after application, rating scale 0-100
Outline: (§3)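 Rating: 0–100 visual injury, 14 DAA. Application: acetone, 187 l/ha, 15–1000 g ai/ha, flat-fan track sprayer with nozzle 40–45 cm above soil or canopy. Post-emerge runs used 0.25% v/v surfactant on 2–3 leaf plants.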

[14] = system: common ragweed (Ambrosia artemisizfolia L., AMBEL); assay: as above; conditions: post-emerge, 14 days after application, rating scale 0-100
Outline: as §3

[15] = system: green foxtail (Setaria viridis, SETVI); assay: as above; conditions: post-emerge, 14 days after application, rating scale 0-100
Outline: as §3

[16] = system: ivyleaf morningglory (Ipomoea hederacea, IPOHE); assay: as above; conditions: post-emerge, 14 days after application, rating scale 0-100
Outline: as §3

[17] = system: johnsongrass (Sorghum halepense, SORHA); assay: as above; conditions: post-emerge, 14 days after application, rating scale 0-100
Outline: as §3

[18] = system: lambsquarters (Chenopodium album, CHEAL); assay: as above; conditions: post-emerge, 14 days after application, rating scale 0-100
Outline: as §3

[19] = system: large crabgrass (Digitaria sanguinalis, DIGSA); assay: as above; conditions: post-emerge, 14 days after application, rating scale 0-100
Outline: as §3

[20] = system: redroot pigweed (Amaranthus retroflexus, AMARE); assay: as above; conditions: post-emerge, 14 days after application, rating scale 0-100
Outline: as §3

[21] = system: sicklepod (Cassia obtusifolia, CASOB); assay: as above; conditions: post-emerge, 14 days after application, rating scale 0-100
Outline: as §3

[22] = system: velvetleaf (Abutilon theophrasti, ABUTH); assay: as above; conditions: post-emerge, 14 days after application, rating scale 0-100
Outline: as §3

[23] = system: field corn (Zea mays L., var. Dekalb 535, CORN); assay: Post-emerge test, crop safety; conditions: post-emerge, 14 days after application, rating scale 0-100
Outline: as §1

[24] = system: upland rice (Oryza sp., var. Tebonnet, RICE); assay: Post-emerge test, crop safety; conditions: post-emerge, 14 days after application, rating scale 0-100
Outline: as §1

For `COc1c(Cl)cc(F)c(-n2c(=O)cc(C(F)(F)F)n(C)c2=O)c1NC(=O)c1cc([N+](=O)[O-])cc([N+](=O)[O-])c1` [2-70], the “Pre-emerge Herbicidal Activity, phytotoxicity rating (0-100), AMARE” value ([1]; 63 g ai/ha) was 70, the “Pre-emerge Herbicidal Activity, phytotoxicity rating (0-100), AMARE” value ([1]; 250 g ai/ha) was 100 and the “Pre-emerge Herbicidal Activity, phytotoxicity rating (0-100), ECHCG” value ([2]; 63 g ai/ha) was 0. For the same compound, the “Pre-emerge Herbicidal Activity, phytotoxicity rating (0-100), ECHCG” value ([2]; 250 g ai/ha) was 0, the “Pre-emerge Herbicidal Activity, phytotoxicity rating (0-100), AMBEL” value ([3]; 63 g ai/ha) was 0 and the “Pre-emerge Herbicidal Activity, phytotoxicity rating (0-100), AMBEL” value ([3]; 250 g ai/ha) was 30. For the same compound, the “Pre-emerge Herbicidal Activity, phytotoxicity rating (0-100), SETVI” value ([4]; 63 g ai/ha) was 0, the “Pre-emerge Herbicidal Activity, phytotoxicity rating (0-100), SETVI” value ([4]; 250 g ai/ha) was 60 and the “Pre-emerge Herbicidal Activity, phytotoxicity rating (0-100), IPOHE” value ([5]; 63 g ai/ha) was 0. The “Pre-emerge Herbicidal Activity, phytotoxicity rating (0-100), IPOHE” value ([5]; 250 g ai/ha) was 60, the “Pre-emerge Herbicidal Activity, phytotoxicity rating (0-100), SORHA” value ([6]; 63 g ai/ha) was 0 and the “Pre-emerge Herbicidal Activity, phytotoxicity rating (0-100), SORHA” value ([6]; 250 g ai/ha) was 0. For the same compound, the “Pre-emerge Herbicidal Activity, phytotoxicity rating (0-100), CHEAL” value ([7]; 63 g ai/ha) was 80, the “Pre-emerge Herbicidal Activity, phytotoxicity rating (0-100), CHEAL” value ([7]; 250 g ai/ha) was 100 and the “Pre-emerge Herbicidal Activity, phytotoxicity rating (0-100), DIGSA” value ([8]; 63 g ai/ha) was 0. The “Pre-emerge Herbicidal Activity, phytotoxicity rating (0-100), DIGSA” value ([8]; 250 g ai/ha) was 20, the “Pre-emerge Herbicidal Activity, phytotoxicity rating (0-100), CASOB” value ([9]; 63 g ai/ha) was 0 and the “Pre-emerge Herbicidal Activity, phytotoxicity rating (0-100), CASOB” value ([9]; 250 g ai/ha) was 40. For the same compound, the “Pre-emerge Herbicidal Activity, phytotoxicity rating (0-100), ABUTH” value ([10]; 63 g ai/ha) was 100, the “Pre-emerge Herbicidal Activity, phytotoxicity rating (0-100), ABUTH” value ([10]; 250 g ai/ha) was 90 and the “Pre-emerge phytotoxicity rating (0-100), crop damage, CORN” value ([11]; 63 g ai/ha) was 0. For the same compound, the “Pre-emerge phytotoxicity rating (0-100), crop damage, CORN” value ([11]; 250 g ai/ha) was 0, the “Pre-emerge phytotoxicity rating (0-100), crop damage, RICE” value ([12]; 63 g ai/ha) was 0 and the “Pre-emerge phytotoxicity rating (0-100), crop damage, RICE” value ([12]; 250 g ai/ha) was 10. The “phytotoxicity rating ECHCG” value ([13]; 63 g ai/ha) was 0, the “phytotoxicity rating ECHCG” value ([13]; 250 g ai/ha) was 0 and the “phytotoxicity rating AMBEL” value ([14]; 63 g ai/ha) was 30. The “phytotoxicity rating AMBEL” value ([14]; 250 g ai/ha) was 30, the “phytotoxicity rating SETVI” value ([15]; 63 g ai/ha) was 20 and the “phytotoxicity rating SETVI” value ([15]; 250 g ai/ha) was 0. The “phytotoxicity rating IPOHE” value ([16]; 63 g ai/ha) was 60, the “phytotoxicity rating IPOHE” value ([16]; 250 g ai/ha) was 60 and the “phytotoxicity rating SORHA” value ([17]; 63 g ai/ha) was 0. For the same compound, the “phytotoxicity rating SORHA” value ([17]; 250 g ai/ha) was 0, the “phytotoxicity rating CHEAL” value ([18]; 63 g ai/ha) was 50 and the “phytotoxicity rating CHEAL” value ([18]; 250 g ai/ha) was 70. For the same compound, the “phytotoxicity rating DIGSA” value ([19]; 63 g ai/ha) was 0, the “phytotoxicity rating DIGSA” value ([19]; 250 g ai/ha) was 0 and the “phytotoxicity rating AMARE” value ([20]; 63 g ai/ha) was 70. The “phytotoxicity rating AMARE” value ([20]; 250 g ai/ha) was 70, the “phytotoxicity rating CASOB” value ([21]; 63 g ai/ha) was 10 and the “phytotoxicity rating CASOB” value ([21]; 250 g ai/ha) was 20. For the same compound, the “phytotoxicity rating ABUTH” value ([22]; 63 g ai/ha) was 100, the “phytotoxicity rating ABUTH” value ([22]; 250 g ai/ha) was 100 and the “phytotoxicity rating CORN” value ([23]; 63 g ai/ha) was 0. For the same compound, the “phytotoxicity rating CORN” value ([23]; 250 g ai/ha) was 0, the “phytotoxicity rating RICE” value ([24]; 63 g ai/ha) was 0 and the “phytotoxicity rating RICE” value ([24]; 250 g ai/ha) was 0.
